Data published in patent US20040146519A1, “Inducing cellular immune responses to carcinoembryonic antigen using peptide and nucleic acid compositions” (priority 2002, published 2004).
Where two headings read alike, the source gives them in different places. Values belong to the molecule of their own block, whether it stands above or below them.

What was measured:
[1] = target: HLA-DRB1*0401 (Homo sapiens, UniProt P01903+P01911, A100K/A169T/F76Y/I96L/K127E/L162R/M171V/N62H/P40V/Q125Y/R42H/S133A/S149N/S66Y/V115G/V209L/W38E); assay: HLA class II binding assay, DRB1*0401 (DR4w4)
[2] = target: HLA-DRB1*0301 (DR3) (Homo sapiens, UniProt P01903+P01911, A100K/A102G/A103R/A169T/F55Y/I96L/K41T/L162R/M171V/P40S/Q125H/Q178H/Q39Y/R42S/S66N/T106N/T262R/W38E/Y61H); assay: HLA class II binding assay, DRB1*0301 (DR3); conditions: read-out: DR3 binding affinity
HLA-DRB1*0301 (DR3), sequence (P01903 26-254 limits assumed, other chains not shown): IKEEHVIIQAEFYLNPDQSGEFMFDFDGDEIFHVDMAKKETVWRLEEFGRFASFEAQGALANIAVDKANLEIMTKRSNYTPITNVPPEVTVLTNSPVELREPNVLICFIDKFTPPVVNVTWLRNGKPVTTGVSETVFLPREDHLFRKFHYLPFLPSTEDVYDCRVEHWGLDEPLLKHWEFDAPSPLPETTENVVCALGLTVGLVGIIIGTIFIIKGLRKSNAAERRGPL

[3] = system: .221A2.1 cells pulsed with peptide; assay: Primary in vitro CTL induction, 51Cr release against peptide-pulsed targets; assay type: cell-based, human; conditions: number of donors yielding a positive response/total tested
Experimental: (§1) The colon adenocarcinoma cell lines SW403 and […], the osteosarcoma line Saos-2 and the breast tumor line BT540 were obtained from the American Type Culture Collection (ATCC) (Rockville, Md.). The gastric cancer line, KATO III was obtained from the Japanese Cancer Research Resources Bank. […] The melanoma, colon and gastric cancer cells were treated with 100 U/ml IFN (Genzyme) for 48 hours at 37° C. before use as targets in the ^51Cr release and in situ IFN assays.
The monocytes were purified by plating 10×10^6 PBMC/well in a 6-well plate. After 2 hours at 37° C., the non-adherent cells were removed by gently shaking the plates and aspirating the supernatants. The wells were washed a total of three times with 3 ml RPMI to remove most of the non-adherent and loosely adherent cells. Three ml of complete medium containing 50 ng/ml of GM-CSF and 1,000 U/ml of IL-4 were then added to each well. […]
Induction of CTL with DC and Peptide: CD8+ T-cells were isolated by positive selection with Dynal immunomagnetic beads (Dynabeads® M-450) and the detacha-bead® reagent. […] The DC were collected and centrifuged at 1300 rpm for 5-7 minutes, washed once with PBS with 1% BSA, counted and pulsed with 40 μg/ml of peptide at a cell concentration of 1-2×10^6/ml in the presence of 3 μg/ml β2-microglobulin for 4 hours at 20° C. The DC were then irradiated (4,200 rads), washed 1 time with medium and counted again. […]

[4] = system: tumor targets that endogenously express CEA (SW403, HT-20, KATO III); assay: 51Cr release against tumor targets (endogenous recognition); assay type: cell-based, human; conditions: number of donors yielding a positive response/total tested
Experimental: as §1
Restimulation of the induction cultures with peptide-pulsed adherent cells: Seven and fourteen days after the primary induction the cells were restimulated with peptide-pulsed adherent cells. […] After expansion, activity was measured in both assays for a side by side comparison.
Seven days after the second restimulation, cytotoxicity was determined in a standard (5 hr) ^51Cr release assay by assaying individual wells at a single E:T. Peptide-pulsed targets were prepared by incubating the cells with 10 μg/ml peptide overnight at 37° C.
Adherent target cells were removed from culture flasks with trypsin-EDTA. […] At that time, 100 μl of supernatant were collected from each well and percent lysis was determined according to the formula: [(cpm of the test sample−cpm of the spontaneous ^51Cr release sample)/(cpm of the maximal ^51Cr release sample-cpm of the spontaneous ^51Cr release sample)]×100. […]

[5] = target: HLA-A*6801 (Homo sapiens, UniProt P04439, A269V/D185E/E176V/E277Q/E87N/F33Y/G231S/I121M/I166T/I218V/L180W/L300P/L318F/N151K/P208A/P217A/Q86R/R169H/T345S); assay: HLA class I binding assay, purified HLA-A*6801; conditions: Table XXIII, binding affinity
[6] = target: HLA-A*3301 (Homo sapiens, UniProt P04439, A270S/D185E/E176V/E277Q/E87N/F33T/G231S/H175R/I121M/I218V/I322F/K168Q/K210R/L300P/L318F/M331R/P217A/Q86R/Q94H/R138Q/T323A/T345S/T97I/V358M/Y195H); assay: HLA class I binding assay, purified HLA-A*3301; conditions: Table XXIII, binding affinity
[7] = target: HLA-A*1101 (Homo sapiens, UniProt P04439, A114D/D185E/E176A/F33Y/L180Q/S129P/T187R); assay: HLA class I binding assay, purified HLA-A*1101; conditions: Table XXIII, binding affinity
HLA-A*1101, sequence (P04439 25-365 limits assumed, stated change not applied): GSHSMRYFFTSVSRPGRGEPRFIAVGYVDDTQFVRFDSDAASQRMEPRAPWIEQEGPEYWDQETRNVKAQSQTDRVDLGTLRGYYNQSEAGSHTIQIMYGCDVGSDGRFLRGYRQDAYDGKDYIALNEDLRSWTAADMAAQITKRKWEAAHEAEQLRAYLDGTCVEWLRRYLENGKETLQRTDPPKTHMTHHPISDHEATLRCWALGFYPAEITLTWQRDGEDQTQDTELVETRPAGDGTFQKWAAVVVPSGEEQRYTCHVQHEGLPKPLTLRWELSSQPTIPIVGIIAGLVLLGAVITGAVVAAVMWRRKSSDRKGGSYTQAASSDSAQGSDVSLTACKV

[8] = target: HLA-A*0301 (Homo sapiens, UniProt P04439); assay: HLA class I binding assay, purified HLA-A*0301; conditions: Table XXIII, binding affinity
[9] = HLA Class II motif and supermotif-bearing epitopes

- IC50 ([1]; DR supertype primary binding, read-out: DR4w4 binding affinity): 1.55 µM
SMILES: CC(C)C[C@H](NC(=O)[C@H](CCCNC(=N)N)NC(=O)[C@@H]1CCCN1C(=O)[C@H](CO)NC(=O)[C@@H](NC(=O)[C@@H]1CCCN1C(=O)[C@H](CC(C)C)NC(=O)[C@H](CO)NC(=O)[C@H](CCC(N)=O)NC(=O)[C@H](CC(N)=O)NC(=O)[C@H](CC(N)=O)NC(=O)[C@@H](NC(=O)[C@H](Cc1c[nH]c2ccccc12)NC(=O)[C@H](Cc1c[nH]c2ccccc12)NC(=O)[C@@H](N)CC(C)C)C(C)C)C(C)C)C(=O)O [CEA.177]

- IC50 [2]: 2.31 µM
SMILES: CC[C@H](C)[C@H](NC(=O)[C@@H](NC(=O)[C@H](Cc1c[nH]cn1)NC(=O)[C@@H](N)CC(C)C)C(C)C)C(=O)N[C@@H](CCCCN)C(=O)N[C@@H](CO)C(=O)N[C@@H](CC(=O)O)C(=O)N[C@@H](CC(C)C)C(=O)N[C@H](C(=O)N[C@@H](CC(N)=O)C(=O)N[C@@H](CCC(=O)O)C(=O)N[C@@H](CCC(=O)O)C(=O)N[C@@H](C)C(=O)N[C@H](C(=O)NCC(=O)O)[C@@H](C)O)C(C)C [CEA.122]

SMILES: CC(C)C[C@H](NC(=O)[C@H](CC(N)=O)NC(=O)[C@H](CC(C)C)NC(=O)[C@H](CC(N)=O)NC(=O)[C@H](C)NC(=O)CNC(=O)[C@H](CO)NC(=O)[C@H](CC(C)C)NC(=O)[C@@H](N)Cc1ccc(O)cc1)C(=O)O [compound 605]
- CTL Wildtype ([3]; Table XXVIIa): 2/2
- CTL Wild-type ([3]; Table XXVIIb): 2/2
- CTL Tumor ([4]; Table XXVIIa): 1/2
- CTL Tumor ([4]; Table XXVIIb): 1/2

- IC50 [5]: 0.0086 µM
- IC50 [6]: 0.264 µM
- IC50 [7]: 3 µM
- IC50 [8]: 2.34 µM
SMILES: CC(C)[C@H](NC(=O)[C@@H](N)[C@@H](C)O)C(=O)N[C@@H](CO)C(=O)N1CCC[C@H]1C(=O)N[C@@H](CO)C(=O)N[C@@H](Cc1ccc(O)cc1)C(=O)N[C@H](C(=O)N[C@@H](Cc1ccc(O)cc1)C(=O)N[C@@H](Cc1ccc(O)cc1)C(=O)N[C@@H](CCCNC(=N)N)C(=O)O)[C@@H](C)O [CEA.419.V2]

- IC50 [1, 9]: > 8.18 µM
SMILES: CC[C@H](C)[C@H](NC(=O)[C@H](CC(N)=O)NC(=O)[C@@H](N)CCC(N)=O)C(=O)N[C@H](C(=O)N[C@@H](CCC(N)=O)C(=O)N[C@@H](CC(N)=O)C(=O)N[C@@H](CC(=O)O)C(=O)N[C@H](C(=O)NCC(=O)N[C@@H](Cc1ccccc1)C(=O)N[C@@H](Cc1ccc(O)cc1)C(=O)N[C@H](C(=O)N[C@@H](CC(C)C)C(=O)N[C@@H](Cc1c[nH]cn1)C(=O)N[C@H](C(=O)O)C(C)C)[C@@H](C)O)[C@@H](C)O)[C@@H](C)CC [CEA.110]

- IC50 [1, 9]: > 8.18 µM
SMILES: CC(C)C[C@H](NC(=O)[C@H](CC(C)C)NC(=O)[C@@H](NC(=O)[C@H](CC(C)C)NC(=O)[C@@H](NC(=O)[C@H](CCCNC(=N)N)NC(=O)[C@H](CC(N)=O)NC(=O)[C@H](CC(=O)O)NC(=O)[C@H](CC(N)=O)NC(=O)[C@H](CO)NC(=O)[C@H](CC(C)C)NC(=O)[C@H](CCC(N)=O)NC(=O)[C@H](CC(C)C)NC(=O)[C@@H](N)CCCNC(=N)N)[C@@H](C)O)[C@@H](C)O)C(=O)N[C@@H](CO)C(=O)O [CEA.368]
